Data reported in patent US6630501B1, “Phosphinic pseudo-peptides that may be used as matrix zinc metalloprotease inhibitors” (Commissariat a l'energie Atomique, priority 1999, dated 2003).

Tests used:
[1] = molecular target: T1, MMP-11 (stromelysin-3, mST3) (Mus musculus, UniProt Q02853); assay: Ki determination with fluorogenic synthetic substrates, recombinant MMP-11; type: biochemical, murine; conditions: for Ki: Tris/50 mM HCl buffer, pH 6.8, 10 mM CaCl2, 25° C., read-out: affinity constant Ki, MMP-11 mST3
T1 construct: made in house; host or cells: E. coli
T1 sequence (Q02853 102-492): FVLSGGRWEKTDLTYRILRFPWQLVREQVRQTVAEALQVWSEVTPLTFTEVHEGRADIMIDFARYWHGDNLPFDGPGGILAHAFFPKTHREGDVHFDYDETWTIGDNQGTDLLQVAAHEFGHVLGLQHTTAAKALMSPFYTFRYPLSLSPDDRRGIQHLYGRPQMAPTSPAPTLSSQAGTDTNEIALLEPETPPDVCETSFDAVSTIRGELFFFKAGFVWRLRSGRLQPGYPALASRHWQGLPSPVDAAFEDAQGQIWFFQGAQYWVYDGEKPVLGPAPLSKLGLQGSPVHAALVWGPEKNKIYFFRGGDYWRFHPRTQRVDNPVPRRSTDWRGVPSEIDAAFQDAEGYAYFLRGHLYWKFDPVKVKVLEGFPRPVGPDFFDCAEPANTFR
Procedure: (§1) The MMPs used were produced in recombinant form, in an E. coli expression system, and then purified using different types of chromatographies. Apart from stromelysin-3 (MMP-11), the MMPs produces correspond to human sequences. The Stromelysin-3 used in this study corresponds to the murine form.
(§2) The activity of each MMP was determined using two fluorogenic synthetic substrates. The cutoff of said substrates, which generates a fluorescent signal proportional to the quantity of split substrate, enables a precise determination of the kinetic parameters. The affinity constants Ki were calculated using the equation of Horowitz et al, Proc. Natl. Acad. Sci. USA, 1987, 84, p. 6654-6658 [14], accounting for the dependency of the percentage of inhibition measured experimentally according to the concentration of inhibitor, as a function of the enzyme and substrate concentration.
(§3) The experiments for conducted in a Tris/50 mM HCl buffer, pH 6.8, 10 mM CaCl2, 25° C.

[2] = molecular target: T2, MMP-2 (Gel-A) (Homo sapiens, UniProt P08253); assay: Ki determination with fluorogenic synthetic substrates, recombinant MMP-2; type: biochemical; conditions: for Ki: Tris/50 mM HCl buffer, pH 6.8, 10 mM CaCl2, 25° C., read-out: affinity constant Ki, MMP-2 Gel-A
T2 construct: made in house; host or cells: E. coli
T2 sequence (P08253 110-660): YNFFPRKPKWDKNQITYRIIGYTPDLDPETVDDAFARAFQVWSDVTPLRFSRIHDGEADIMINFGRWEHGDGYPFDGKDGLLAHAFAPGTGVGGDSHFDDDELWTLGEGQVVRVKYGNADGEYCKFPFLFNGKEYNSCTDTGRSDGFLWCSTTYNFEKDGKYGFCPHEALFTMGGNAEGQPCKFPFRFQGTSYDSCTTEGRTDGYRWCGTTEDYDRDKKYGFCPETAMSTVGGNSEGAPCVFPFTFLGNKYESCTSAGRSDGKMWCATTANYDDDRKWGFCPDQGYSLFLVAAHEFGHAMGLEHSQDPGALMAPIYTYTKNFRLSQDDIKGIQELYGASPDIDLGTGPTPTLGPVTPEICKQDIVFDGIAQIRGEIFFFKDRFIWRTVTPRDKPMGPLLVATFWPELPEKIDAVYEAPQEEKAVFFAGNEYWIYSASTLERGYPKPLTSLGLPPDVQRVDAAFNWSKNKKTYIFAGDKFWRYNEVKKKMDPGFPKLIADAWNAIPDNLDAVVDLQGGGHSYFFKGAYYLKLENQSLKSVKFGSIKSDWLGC
Procedure: as §1, §2, §3

[3] = molecular target: T3, MMP-9 (Gel-B) (Homo sapiens, UniProt P14780); assay: Ki determination with fluorogenic synthetic substrates, recombinant MMP-9; type: biochemical; conditions: for Ki: Tris/50 mM HCl buffer, pH 6.8, 10 mM CaCl2, 25° C., read-out: affinity constant Ki, MMP-9 Gel-B
T3 construct: made in house; host or cells: E. coli
T3 sequence (P14780 94-707): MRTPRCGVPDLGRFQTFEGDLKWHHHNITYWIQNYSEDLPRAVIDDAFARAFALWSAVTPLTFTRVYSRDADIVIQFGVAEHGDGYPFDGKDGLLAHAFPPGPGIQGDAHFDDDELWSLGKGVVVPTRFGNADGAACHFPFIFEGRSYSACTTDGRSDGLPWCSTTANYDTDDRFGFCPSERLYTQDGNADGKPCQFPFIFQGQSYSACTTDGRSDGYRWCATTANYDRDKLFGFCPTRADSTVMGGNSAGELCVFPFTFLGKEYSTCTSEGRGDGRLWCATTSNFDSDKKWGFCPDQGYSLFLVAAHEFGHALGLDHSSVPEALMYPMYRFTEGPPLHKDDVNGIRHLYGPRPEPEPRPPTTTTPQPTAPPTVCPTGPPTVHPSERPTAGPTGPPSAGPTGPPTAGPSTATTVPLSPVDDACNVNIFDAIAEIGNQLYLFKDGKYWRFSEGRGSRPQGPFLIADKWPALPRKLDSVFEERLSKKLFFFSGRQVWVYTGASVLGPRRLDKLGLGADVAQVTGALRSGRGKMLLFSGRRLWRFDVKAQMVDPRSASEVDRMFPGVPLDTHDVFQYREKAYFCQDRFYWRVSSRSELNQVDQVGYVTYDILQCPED
Procedure: as §1, §2, §3

[4] = molecular target: T4, MMP-14 (MT1-MMP) (Homo sapiens, UniProt P50281); assay: Ki determination with fluorogenic synthetic substrates, recombinant MMP-14; type: biochemical; conditions: Tris/50 mM HCl buffer, pH 6.8, 10 mM CaCl2, 25° C.; read-out: affinity constant Ki, MMP-14 MT1-MMP
T4 construct: made in house; host or cells: E. coli
Procedure: as §1, §2, §3

[5] = molecular target: T5, MMP-1 (HFC) (Homo sapiens, UniProt P03956); assay: Ki determination with fluorogenic synthetic substrates, recombinant MMP-1; type: biochemical; conditions: for percentage of inhibition, MMP-1: @ 2 mM inhibitor; for inhibition at 1 µM: @ 1 μM inhibitor, read-out: percentage of inhibition, MMP-1
T5 construct: made in house; host or cells: E. coli
T5 sequence (P03956 100-469): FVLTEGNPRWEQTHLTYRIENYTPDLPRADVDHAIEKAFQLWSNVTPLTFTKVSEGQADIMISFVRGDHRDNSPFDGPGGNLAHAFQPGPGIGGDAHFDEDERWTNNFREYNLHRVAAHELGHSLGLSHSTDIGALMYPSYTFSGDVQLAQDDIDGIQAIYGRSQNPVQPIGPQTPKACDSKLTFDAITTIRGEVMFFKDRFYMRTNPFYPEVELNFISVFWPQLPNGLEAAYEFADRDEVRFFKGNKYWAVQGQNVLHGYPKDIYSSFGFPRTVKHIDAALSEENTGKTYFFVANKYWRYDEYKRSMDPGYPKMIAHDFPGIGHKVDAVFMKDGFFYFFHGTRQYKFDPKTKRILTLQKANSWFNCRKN
Procedure: as §1, §2, §3

[6] = molecular target: T6, MMP-7 (Matrilysin) (Homo sapiens, UniProt P09237); assay: Ki determination with fluorogenic synthetic substrates, recombinant MMP-7; type: biochemical; conditions: for inhibition at 1 µM: @ 1 μM inhibitor, read-out: percentage of inhibition, MMP-7
T6 construct: made in house; host or cells: E. coli
T6 sequence (P09237 95-267): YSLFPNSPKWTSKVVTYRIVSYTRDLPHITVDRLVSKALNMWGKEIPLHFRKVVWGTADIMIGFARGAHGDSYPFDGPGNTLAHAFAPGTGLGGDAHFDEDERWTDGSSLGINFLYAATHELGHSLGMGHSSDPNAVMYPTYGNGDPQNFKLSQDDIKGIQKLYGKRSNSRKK
Procedure: as §1, §2, §3

[7] = molecular target: T7, MMP-8 (HNC) (Homo sapiens, UniProt P22894); assay: Ki determination with fluorogenic synthetic substrates, recombinant MMP-8; type: biochemical; conditions: for Ki: Tris/50 mM HCl buffer, pH 6.8, 10 mM CaCl2, 25° C., read-out: affinity constant Ki, MMP-8 HNC
T7 construct: made in house; host or cells: E. coli
T7 sequence (P22894 101-467): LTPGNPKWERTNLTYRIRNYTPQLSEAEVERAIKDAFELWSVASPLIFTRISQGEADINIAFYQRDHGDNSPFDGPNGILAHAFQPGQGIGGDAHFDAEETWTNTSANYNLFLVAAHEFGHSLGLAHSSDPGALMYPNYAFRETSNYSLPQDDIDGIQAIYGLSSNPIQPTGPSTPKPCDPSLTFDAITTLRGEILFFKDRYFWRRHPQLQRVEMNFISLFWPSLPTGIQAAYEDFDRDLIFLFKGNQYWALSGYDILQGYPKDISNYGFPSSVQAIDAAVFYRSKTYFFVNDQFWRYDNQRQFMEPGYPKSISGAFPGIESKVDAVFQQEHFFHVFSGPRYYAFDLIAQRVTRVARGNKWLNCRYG
Procedure: as §1, §2, §3

SMILES | Ki [1] [nM] | Ki [2] [nM] | Ki [3] [nM] | Ki [4] [nM] | percentage of inhibition, MMP-1 ([5]; listed as R II) [% @ 2 mM] | percentage of inhibition, MMP-7 ([6]; @ 20 mM inhibitor, listed as R II) [% @ 20 mM] | Ki [7] [nM] | inhibition at 1 µM [5] [%] | inhibition at 1 µM [6] [%] | Ki ([6]; Tris/50 mM HCl buffer, pH 6.8, 10 mM CaCl2, 25° C., read-out: affinity constant Ki, MMP-7 Matrilysin) [nM] | percentage of inhibition, MMP-1 ([5]; listed as S II) [% @ 2 mM] | percentage of inhibition, MMP-7 ([6]; @ 20 mM inhibitor, listed as S II) [% @ 20 mM] | percentage of inhibition, MMP-1 [5] [% @ 2 mM] | percentage of inhibition, MMP-7 ([6]; @ 50 mM inhibitor) [% @ 50 mM] | percentage of inhibition, MMP-1 ([5]; listed as S I) [% @ 2 mM] | percentage of inhibition, MMP-7 ([6]; @ 20 mM inhibitor, listed as S I) [% @ 20 mM] | inhibitory power on MMP-11, in words [1] | inhibitory power on MMP-2, in words [2] | inhibitory power on MMP-9, in words [3] | inhibitory power on MMP-8, in words [7]
CC(=O)NC(Cc1ccccc1)P(=O)(O)CC(CCCc1ccccc1)C(=O)NC(Cc1c[nH]c2ccccc12)C(N)=O (stereo not shown) [Compound 25] | 20 | 26 | 35 | 90 | – | – | 3.5 | 29 | 16 | – | – | – | – | – | – | – | – | – | – | –
NC(=O)C(Cc1c[nH]c2ccccc12)NC(=O)C(CCCc1ccccc1)CP(=O)(O)C(Cc1ccccc1)NC(=O)OCc1ccccc1 (single isomer, unassigned) [Compound 15 S II] | 50 | 365 | 250 | 2290 | – | – | 460 | – | – | – | 6 | 29 | – | – | – | – | – | – | – | –
NC(=O)C(Cc1c[nH]c2ccccc12)NC(=O)C(CCCCc1ccccc1)CP(=O)(O)C(Cc1ccccc1)NC(=O)OCc1ccccc1 (stereo not shown) [Compound 16] | 33 | 145 | 70 | 580 | – | – | 4.3 | – | – | – | – | – | 5 | 65 | – | – | – | – | – | –
NC(=O)C(Cc1c[nH]c2ccccc12)NC(=O)C(CCCc1ccccc1)CP(=O)(O)C(Cc1ccccc1)NC(=O)CNc1ccccc1 (stereo not shown) [Compound 27] | 15 | 17 | 6 | 73 | – | – | 4.5 | 33 | 16 | – | – | – | – | – | – | – | – | – | – | –
NC(=O)C(Cc1c[nH]c2ccccc12)NC(=O)C(CCCc1ccccc1)CP(=O)(O)C(Cc1ccccc1)NC(=O)CNc1cc(Cl)ccc1O (stereo not shown) [Compound 29] | 10 | 30 | 34 | 63 | – | – | 7.5 | 55 | 48 | – | – | – | – | – | – | – | – | – | – | –

Compounds with a lower Ki [1], results first:

Ki [1] [nM] | Ki [2] [nM] | Ki [3] [nM] | Ki [4] [nM] | percentage of inhibition, MMP-1 ([5]; listed as R II) [% @ 2 mM] | percentage of inhibition, MMP-7 ([6]; @ 20 mM inhibitor, listed as R II) [% @ 20 mM] | Ki [7] [nM] | inhibition at 1 µM [5] [%] | inhibition at 1 µM [6] [%] | Ki ([6]; Tris/50 mM HCl buffer, pH 6.8, 10 mM CaCl2, 25° C., read-out: affinity constant Ki, MMP-7 Matrilysin) [nM] | percentage of inhibition, MMP-1 ([5]; listed as S II) [% @ 2 mM] | percentage of inhibition, MMP-7 ([6]; @ 20 mM inhibitor, listed as S II) [% @ 20 mM] | percentage of inhibition, MMP-1 [5] [% @ 2 mM] | percentage of inhibition, MMP-7 ([6]; @ 50 mM inhibitor) [% @ 50 mM] | percentage of inhibition, MMP-1 ([5]; listed as S I) [% @ 2 mM] | percentage of inhibition, MMP-7 ([6]; @ 20 mM inhibitor, listed as S I) [% @ 20 mM] | inhibitory power on MMP-11, in words [1] | inhibitory power on MMP-2, in words [2] | inhibitory power on MMP-9, in words [3] | inhibitory power on MMP-8, in words [7] | SMILES
9 | 42 | 78 | 385 | 16 | 34 | 65 | – | – | – | – | – | – | – | – | – | – | – | – | – | NC(=O)C(Cc1c[nH]c2ccccc12)NC(=O)C(CCCc1ccccc1)CP(=O)(O)C(Cc1ccccc1)NC(=O)OCc1ccccc1 (single isomer, unassigned) [Compound 15 R II]
6 | 40 | 22 | 53 | – | – | 7 | 20 | 32 | – | – | – | – | – | – | – | – | – | – | – | CC(C)CC(NC(=O)OCc1ccccc1)C(=O)NC(Cc1ccccc1)P(=O)(O)CC(CCCc1ccccc1)C(=O)NC(Cc1c[nH]c2ccccc12)C(N)=O (stereo not shown) [Compound 35]
5 | 45 | 33 | 135 | – | – | 16 | – | – | – | – | – | – | – | 17 | 59 | – | – | – | – | NC(=O)C(Cc1c[nH]c2ccccc12)NC(=O)C(CCCc1ccccc1)CP(=O)(O)C(Cc1ccccc1)NC(=O)OCc1ccccc1 (single isomer, unassigned) [Compound 15 S I]
5 | 100 | 110 | 217 | – | – | 17 | 47 | 37 | – | – | – | – | – | – | – | – | – | – | – | NC(=O)C(Cc1c[nH]c2ccccc12)NC(=O)C(CCCc1ccccc1)CP(=O)(O)C(Cc1ccccc1)NC(=O)c1cc2cc(Cl)cc(Cl)c2oc1=O (stereo not shown) [Compound 33]
4.2 | 19 | 13 | 60 | – | – | 5 | 78 | – | 370 | – | – | – | – | – | – | – | – | – | – | NC(=O)C(Cc1c[nH]c2ccccc12)NC(=O)C(CCCc1ccccc1)CP(=O)(O)C(Cc1ccccc1)NC(=O)c1ccc2ccccc2n1 (stereo not shown) [Compound 32]
3.8 | 9 | 6 | 45 | – | – | 4 | 63 | 25 | – | – | – | – | – | – | – | – | – | – | – | NC(=O)C(Cc1c[nH]c2ccccc12)NC(=O)C(CCCc1ccccc1)CP(=O)(O)C(Cc1ccccc1)NC(=O)CNc1cccc(Cl)c1 (stereo not shown) [Compound 28]
2 | 6 | 3 | 22 | – | – | 0.7 | – | – | – | – | – | 13 | 84 | – | – | very powerful inhibitor | very powerful inhibitor | very powerful inhibitor | very powerful inhibitor | COc1ccc(CSCC(CP(=O)(O)C(Cc2ccccc2)NC(=O)OCc2ccccc2)C(=O)NC(Cc2c[nH]c3ccccc23)C(N)=O)cc1 (stereo not shown) [Compound 18]
